Measurements as given in patent US8574563B2 (Bristol-Myers Squibb Company, priority 2006, dated 2013).

System: HCV 1b-377-neo replicon cells
Test: HCV replicon assay, HCV 1b-377-neo replicon cells (1b FRET)
Type: cell-based, Hepatitis C virus genotype 1b
Conditions: Hepatitis C virus, HCV 1b-377-neo replicon cells; HCV 1b genotype; read-out: EC50 range against HCV 1b (Table 2, Range)
In short: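 Compounds were tested in genotype 1b subgenomic replicon cells carrying a neomycin marker, alongside a matched replicon line with an NS5A Y2065H substitution that confers resistance to a reference NS5A inhibitor.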

Structure (SMILES)	EC50 [nM]
CCN(CC)[C@H](C)C(=O)N1CCC[C@H]1c1ncc(-c2ccc(-c3ccc(-c4cnc([C@@H]5CCCN5C(=O)[C@H](NC(=O)OC)c5ccccc5)[nH]4)c(F)c3)cc2F)[nH]1 [Example D63, methyl ((1R)-2-((2S)-2-(5-(4′-(2-((2S)-1-(N,N-diethyl-D-alanyl)-2-pyrrolidinyl)-1H-imidazol-5-yl)-3,3′-difluoro-4-biphenylyl)-1H-imidazol-2-yl)-1-pyrrolidinyl)-2-oxo-1-phenylethyl)carbamate]	0.001 to 0.999
CCN(CC)[C@@H](C(=O)N1CCC[C@H]1c1ncc(-c2ccc(-c3ccc(-c4cnc([C@@H]5CCCN5C(=O)[C@H](NC(=O)OC)c5ccccc5)[nH]4)c(F)c3)cc2F)[nH]1)c1ccccc1 [Example D64, methyl ((1R)-2-((2S)-2-(5-(4′-(2-((2S)-1-((2R)-2-(diethylamino)-2-phenylacetyl)-2-pyrrolidinyl)-1H-imidazol-5-yl)-3,3′-difluoro-4-biphenylyl)-1H-imidazol-2-yl)-1-pyrrolidinyl)-2-oxo-1-phenylethyl)carbamate]	0.001 to 0.999
COC(=O)N[C@H](C(=O)N1CCC[C@H]1c1ncc(-c2ccc(-c3ccc(-c4cnc([C@@H]5CCCN5C(=O)[C@H](NC(=O)OC)c5ccccc5)[nH]4)c(F)c3)cc2F)[nH]1)[C@H](C)OC [Example D65, methyl ((1S,2R)-1-(((2S)-2-(5-(3,3′-difluoro-4′-(2-((2S)-1-((2R)-2-((methoxyearbonyl)amino)-2-phenylacetyl)-2-pyrrolidinyl)-1H-imidazol-5-yl)-4-biphenylyl)-1H-imidazol-2-yl)-1-pyrrolidinyl)carbonyl)-2-methoxypropyl) carbamate bis(trifluoroacetate)]	0.001 to 0.999
COC(=O)N[C@H](C(=O)N1CCC[C@H]1c1nc(-c2ccc(-c3ccc(-c4cnc([C@@H]5CCCN5C(=O)[C@H](NC(=O)OC)c5ccccc5)[nH]4)c(F)c3)cc2F)c[nH]1)C1CC1 [Example D66, methyl ((1S)-1-cyclopropyl-2-((2S)-2-(5-(3,3′-difluoro-4′-(2-((2S)-1-((2R)-2-((methoxycarbonyl)amino)-2-phenylacetyl)-2-pyrrolidinyl)-1H-imidazol-5-yl)-4-biphenylyl)-1H-imidazol-2-yl)-1-pyrrolidinyl)-2-oxoethyl)carbamate]	0.001 to 0.999
COC(=O)N[C@@H](C)C(=O)N1CCC[C@H]1c1nc(-c2cnc(-c3ccc(-c4cnc([C@@H]5CCCN5C(=O)[C@H](C)NC(=O)OC)[nH]4)c(F)c3)nc2)c[nH]1 [Example D67, methyl ((1S)-2-((2S)-2-(5-(2-fluoro-4-(5-(2-((2S)-1-(N-(methoxycarbonyl)-L-alanyl)-2-pyrrolidinyl)-1H-imidazol-5-yl)-2-pyrimidinyl)phenyl)-1H-imidazol-2-yl)-1-pyrrolidinyl)-1-methyl-2-oxoethyl)carbamate]	0.001 to 0.999
COC(=O)N[C@H](C(=O)N1CCC[C@H]1c1nc(-c2cnc(-c3ccc(-c4cnc([C@@H]5CCCN5C(=O)[C@@H](NC(=O)OC)C(C)C)[nH]4)c(F)c3)nc2)c[nH]1)C(C)C [Example D68, methyl ((1S)-1-(((2S)-2-(5-(2-fluoro-4-(5-(2-((2S)-1-((2S)-((methoxycarbonyl)amino)-3-methylbutanoyl)-2-pyrrolidinyl)-1H-imidazol-5-yl)-2-pyrimidinyl)phenyl)-1H-imidazol-2-yl)-1-pyrrolidinyl)carbonyl)-2-methylpropyl) carbamate]	0.001 to 0.999
COC(=O)N[C@@H](C(=O)N1CCC[C@H]1c1nc(-c2cnc(-c3ccc(-c4cnc([C@@H]5CCCN5C(=O)[C@H](NC(=O)OC)c5ccccc5)[nH]4)c(F)c3)nc2)c[nH]1)c1ccccc1 [Example D69, methyl ((1R)-2-((2S)-2-(5-(2-(3-fluoro-4-(2-((2S)-1-((2R)-2-((methoxycarbonyl)amino)-2-phenylacetyl)-2-pyrrolidinyl)-1H-imidazol-5-yl)phenyl)-5-pyrimidinyl)-1H-imidazol-2-yl)-1-pyrrolidinyl)-2-oxo-1-phenylethyl)carbamate]	0.001 to 0.999
COC(=O)N[C@H](C(=O)N1CCC[C@H]1c1nc(-c2cnc(-c3ccc(-c4cnc([C@@H]5CCCN5C(=O)[C@@H](NC(=O)OC)[C@@H](C)OC)[nH]4)c(F)c3)nc2)c[nH]1)[C@@H](C)OC [Example D70, methyl ((1S,2R)-1-(((2S)-2-(5-(2-fluoro-4-(5-(2-((2S)-1-(N-(methoxycarbonyl)-O-methyl-L-threonyl)-2-pyrrolidinyl)-1H-imidazol-5-yl)-2-pyrimidinyl)phenyl)-1H-imidazol-2-yl)-1-pyrrolidinyl)carbonyl)-2-methoxypropyl) carbamate]	0.001 to 0.999
COC(=O)N[C@@H](C)C(=O)N1CCC[C@H]1c1nc(-c2cnc(-c3ccc(-c4cnc([C@@H]5CCCN5C(=O)[C@H](C)NC(=O)OC)[nH]4)cc3)nc2)c[nH]1 [Example D73, methyl ((1S)-2-((2S)-2-(5-(4-(5-(2-((2S)-1-(N-(methoxycarbonyl)-L-alanyl)-2-pyrrolidinyl)-1H-imidazol-5-yl)-2-pyrimidinyl)phenyl)-1H-imidazol-2-yl)-1-pyrrolidinyl)-1-methyl-2-oxoethyl)carbamate]	0.001 to 0.999
COC(=O)N[C@H](C(=O)N1CCC[C@H]1c1nc(-c2cnc(-c3ccc(-c4cnc([C@@H]5CCCN5C(=O)[C@@H](NC(=O)OC)C(C)C)[nH]4)cc3)nc2)c[nH]1)C(C)C [Example D74, methyl ((1S)-1-(((2S)-2-(5-(2-(4-(2-((2S)-1-((2S)-2-((methoxycarbonyl)amino)-3-methylbutanoyl)-2-pyrrolidinyl)-1H-imidazol-5-yl)phenyl)-5-pyrimidinyl)-1H-imidazol-2-yl)-1-pyrrolidinyl)carbonyl)-2-methylpropyl)carbamate]	0.001 to 0.999
COC(=O)N[C@H](C(=O)N1CCC[C@H]1c1nc(-c2cnc(-c3ccc(-c4cnc([C@@H]5CCCN5C(=O)[C@@H](NC(=O)OC)C5CC5)[nH]4)cc3)nc2)c[nH]1)C1CC1 [Example D75, methyl ((1S)-1-cyclopropyl-2-((2S)-2-(5-(2-(4-(2-((2S)-1-((2S)-2-cyclopropyl-2-((methoxycarbonyl)amino)acetyl)-2-pyrrolidinyl)-1H-imidazol-5-yl)phenyl)-5-pyrimidinyl)-1H-imidazol-2-yl)-1-pyrrolidinyl)-2-oxoethyl)carbamate]	0.001 to 0.999
CCN(CC)[C@@H](C(=O)N1CCC[C@H]1c1ncc(-c2ccc(-c3ncc(-c4c[nH]c([C@@H]5CCCN5C(=O)[C@@H](NC(=O)OC)C(C)C)n4)cn3)cc2)[nH]1)c1ccccc1 [Example D76]	0.001 to 0.999
CCN(CC)[C@@H](C(=O)N1CCC[C@H]1c1ncc(-c2ccc(-c3ncc(-c4c[nH]c([C@@H]5CCCN5C(=O)[C@H](C)NC(=O)OC)n4)cn3)cc2)[nH]1)c1ccccc1 [Example D77, methyl ((1S)-2-((2S)-2-(5-(2-(4-(2-((2S)-1-((2R)-2-(diethylamino)-2-phenylacetyl)-2-pyrrolidinyl)-1H-imidazol-5-yl)phenyl)-5-pyrimidinyl)-1H-imidazol-2-yl)-1-pyrrolidinyl)-1-methyl-2-oxoethyl)carbamate]	0.001 to 0.999
Cc1[nH]c([C@@H]2CCCN2C(=O)[C@@H](c2ccccc2)N(C)C)nc1-c1ccc(-c2ccc(-c3cnc([C@@H]4CCCN4C(=O)[C@@H](c4ccccc4)N(C)C)[nH]3)cc2)cc1 [Example E5, (1R)-2-((2S)-2-(4-(4′-(2-((2S)-1-((2R)-2-(dimethylamino)-2-phenylacetyl)-2-pyrrolidinyl)-1H-imidazol-4-yl)-4-biphenylyl)-5-methyl-1H-imidazol-2-yl)-1-pyrrolidinyl)-N,N-dimethyl-2-oxo-1-phenylethanamine]	0.001 to 0.999
CCN(CC)[C@@H](C(=O)N1CCC[C@H]1c1ncc(-c2ccc(-c3ccc(-c4nc([C@@H]5CCCN5C(=O)[C@@H](c5ccccc5)N(CC)CC)[nH]c4C)cc3)cc2)[nH]1)c1ccccc1 [Example E5a, (1R)-2-((2S)-2-(4-(4′-(2-((2S)-1-((2R)-2-(diethylamino)-2-phenylacetyl)-2-pyrrolidinyl)-1H-imidazol-4-yl)-4-biphenylyl)-5-methyl-1H-imidazol-2-yl)-1-pyrrolidinyl)-N,N-diethyl-2-oxo-1-phenylethanamine]	0.001 to 0.999
Cc1[nH]c([C@@H]2CCCN2C(=O)[C@@H](c2ccccc2)N2CCCCC2)nc1-c1ccc(-c2ccc(-c3cnc([C@@H]4CCCN4C(=O)[C@@H](c4ccccc4)N4CCCCC4)[nH]3)cc2)cc1 [Example E5b, 1-((1R)-2-((2S)-2-(4-(4′-(4-methyl-2-((2S)-1-((2R)-2-phenyl-2-(1-piperidinyl)acetyl)-2-pyrrolidinyl)-1H-imidazol-5-yl)-4-biphenylyl)-1H-imidazol-2-yl)-1-pyrrolidinyl)-2-oxo-1-phenylethyl)piperidine]	0.001 to 0.999
COC(=O)N[C@@H](C(=O)N1CCC[C@H]1c1ncc(-c2ccc(-c3ccc(-c4nc([C@@H]5CCCN5C(=O)[C@H](NC(=O)OC)c5ccccc5)[nH]c4C)cc3)cc2)[nH]1)c1ccccc1 [Example E5c, methyl ((1R)-2-((2S)-2-(4-(4′-(2-((2S)-1-((2R)-2-((methoxycarbonyl)amino)-2-phenylacetyl)-2-pyrrolidinyl)-1H-imidazol-4-yl)-4-biphenylyl)-5-methyl-1H-imidazol-2-yl)-1-pyrrolidinyl)-2-oxo-1-phenylethyl)carbamate]	0.001 to 0.999
COC(=O)N[C@@H](C)C(=O)N1CCC[C@H]1c1ncc(-c2ccc(-c3ccc(-c4nc([C@@H]5CCCN5C(=O)[C@H](C)NC(=O)OC)[nH]c4C)cc3)cc2)[nH]1 [Example E5d, methyl ((1S)-2-((2S)-2-(4-(4′-(2-((2S)-1-(N-(methoxycarbonyl)-L-alanyl)-2-pyrrolidinyl)-4-methyl-1H-imidazol-5-yl)-4-biphenylyl)-1H-imidazol-2-yl)-1-pyrrolidinyl)-1-methyl-2-oxoethyl)carbamate]	0.001 to 0.999
